Values joined by “and” are separate entries in the source; they are usually repeats but may differ in a detail not shown here. Equal values may be shown once. Read-outs that look alike come from different tables or passages of the source.
Columns and labels:
Type in all cases: cell-based
[1] = target: GluATCV* (GluATCV G614S/F615L) (Rattus norvegicus, UniProt P19490, L497Y); conditions: GluATCV* oocytes; for Glutamate-induced fraction of the Ba^2+-block (IGlu/IBa): fraction of total Ba^2+-sensitive current
Text: (§1) The GluATCV constructs were generated by replacing the nucleotide sequence encoding amino acids 538–629 (GluATCVlong), 634 (GluATCV short) and 642 (GluATCV) of the mature GluA1 by the KcvATCV-1 sequence with the use of XhoI and NheI. The GluATCV^ΔNTD and GluATCV^ΔM4 constructs were generated by excising the nucleotide sequence encoding amino acids 19–394 and upstream of 784 of the mature GluA1 by deletion PCR, respectively. All constructs were confirmed by DNA sequencing (Seqlab, Göttingen, Germany).
(§2) cRNAs were synthesized by using the AmpliCap-Max™ T7 High Yield Message Maker Kit of Cellscript (Madison, Wi, USA) with the plasmid linearized by AatII. X. laevis oocytes were used for two electrode voltage-clamp (TEVC) electrophysiology as previously described. Oozytes were surgically obtained from female X. laevis after anesthesia with 0.1% Tricaine in water under the approval of the Technical University of Darmstadt (Agreement V54-19c20/15 DA8/Anz. 20). After the harvest, oocytes were incubated for 1 h in 0.8 mg collagenase in frog ringer [96 mM NaCl, 2 mM KCl, 1 mM CaCl2,1 mM MgCl2, and 5 mM HEPES (pH 7.4 with NaOH)][53]. After the treatment and a washing step with Ca^2+ free ringer [96 mM NaCl, 2 mM KCl,1 mM MgCl2, and 5 mM HEPES (pH 7.4 with NaOH)] oocytes of stage V and VI were selected and defolliculated by pipetting with a burned glass-Pasteur-pipette. For electrophysiological analysis, oocytes were injected with 50 ng in a volume of 50 nl of the respective construct. After injection the oocytes were incubated in ND-96 solution (96 mM NaCl, 2 mM KCl, 1 mM CaCl2, 1 mM MgCl2, 5 mM HEPES, pH 7.4 with NaOH) at 18 °C for 3–5 days until the electrophysiological measurements. The TEVC recordings were performed at room temperature with an Axoclamp 900A amplifier, digitized with a Digidata 1550A at 5 kHz after low-pass filtering at 200 Hz and recorded with Clampex 10.7 (Molecular Devices, San Jose, USA). For recording the microelectrodes were filled with 3 M KCl (resistance 0.8–2.8 MΩ in external solution) and the oocytes were clamped at −70 mV. The external solution was a modified ringer solution containing 100 mM KCl; 10 mM HEPES; 1.8 mM CaCl2; 1 mM MgCl2 (pH 7.4 with KOH) alone or containing agonist.
(§3) Permeability ratio was calculated by the shift of the reversal potential with the Goldman–Hodgkin–Katz equation under bi-ionic conditions PNa^+/PK^+=expΔErev*F/R*T [27]. The amplitude was measured with KielPatch and also the open probability in bilayer measurements was analyzed by the build in Hinkley-jump-detector of KielPatch (http://www.zbm.uni-kiel.de/aghansen/software.html). Values given represent means ± SEM. Statistical significance was determined at the p < 0.05 (*), p < 0.01 (**), and p < 0.001 (***) levels using a Student’s two-tailed, unpaired two-side t-test or ANOVA (in case of more groups) and a Tukey post-hoc analysis (Prism 7.00). All data are shown as boxplots with a center line representing the median; box limits are the upper and lower quartiles; whiskers representing min and max.

[2] = test system: GluATCV (GluA1/KcvATCV-1 chimera); experiment: Two-electrode voltage clamp of GluATCV expressing Xenopus oocytes
Text: as §1, §2, §3

[3] = test system: GluATCVshort (GluA1/KcvATCV-1 chimera); experiment: Two-electrode voltage clamp of GluATCVshort expressing Xenopus oocytes
Text: as §1
(§4) cRNAs were synthesized by using the AmpliCap-Max™ T7 High Yield Message Maker Kit of Cellscript (Madison, Wi, USA) with the plasmid linearized by AatII. X. laevis oocytes were used for two electrode voltage-clamp (TEVC) electrophysiology as previously described. […] The TEVC recordings were performed at room temperature with an Axoclamp 900A amplifier, digitized with a Digidata 1550A at 5 kHz after low-pass filtering at 200 Hz and recorded with Clampex 10.7 (Molecular Devices, San Jose, USA). […]
(§5) Permeability ratio was calculated by the shift of the reversal potential with the Goldman–Hodgkin–Katz equation under bi-ionic conditions PNa^+/PK^+=expΔErev*F/R*T [27]. The amplitude was measured with KielPatch and also the open probability in bilayer measurements was analyzed by the build in Hinkley-jump-detector of KielPatch (http://www.zbm.uni-kiel.de/aghansen/software.html). […]

GluATCV*^ΔNTD = GluATCV*^ΔNTD (Rattus norvegicus, UniProt P19490, L497Y); conditions: GluATCV*^ΔNTD oocytes, saturating glutamate concentrations, n = 5
Text: as §1, §2, §3

[4] = test system: GluATCVlong (GluA1/KcvATCV-1 chimera); experiment: Two-electrode voltage clamp of GluATCVlong expressing Xenopus oocytes
Text: as §1
as §4, with “described. Oozytes were surgically obtained from female X. laevis after anesthesia with 0.1% Tricaine in water under the approval of the Technical University of Darmstadt (Agreement V54-19c20/15 DA8/Anz. 20). After the harvest, oocytes were incubated for 1 h in 0.8 mg collagenase in frog ringer [96 mM NaCl, 2 mM KCl, 1 mM CaCl2,1 mM MgCl2, and 5 mM HEPES (pH 7.4 with NaOH)][53].” for “described.”

[5] = target: T1, GluA1 glutamate receptor carrying the mutation L479Y (Rattus norvegicus, UniProt P19490, L497Y); experiment: Two-electrode voltage clamp of GluA1 expressing Xenopus oocytes; conditions: CNQX IC50, GluA1 (L479Y) oocytes, in the presence of 5 µM glutamate (EC50), n = 5
T1 construct: expressed in transfected cells; host or cells: Xenopus laevis oocytes (cRNA injection)
Text: as §1, §4, §5

Chain of GluATCV* (GluATCV G614S/F615L) (A7K9J5 entry or part of it G77S/F78L): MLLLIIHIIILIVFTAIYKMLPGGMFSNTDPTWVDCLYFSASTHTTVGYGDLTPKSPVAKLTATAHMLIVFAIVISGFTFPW
Chain of GluATCV* (GluATCV G614S/F615L) (P19490 other isoform, or with tags, fused parts or gaps L497Y): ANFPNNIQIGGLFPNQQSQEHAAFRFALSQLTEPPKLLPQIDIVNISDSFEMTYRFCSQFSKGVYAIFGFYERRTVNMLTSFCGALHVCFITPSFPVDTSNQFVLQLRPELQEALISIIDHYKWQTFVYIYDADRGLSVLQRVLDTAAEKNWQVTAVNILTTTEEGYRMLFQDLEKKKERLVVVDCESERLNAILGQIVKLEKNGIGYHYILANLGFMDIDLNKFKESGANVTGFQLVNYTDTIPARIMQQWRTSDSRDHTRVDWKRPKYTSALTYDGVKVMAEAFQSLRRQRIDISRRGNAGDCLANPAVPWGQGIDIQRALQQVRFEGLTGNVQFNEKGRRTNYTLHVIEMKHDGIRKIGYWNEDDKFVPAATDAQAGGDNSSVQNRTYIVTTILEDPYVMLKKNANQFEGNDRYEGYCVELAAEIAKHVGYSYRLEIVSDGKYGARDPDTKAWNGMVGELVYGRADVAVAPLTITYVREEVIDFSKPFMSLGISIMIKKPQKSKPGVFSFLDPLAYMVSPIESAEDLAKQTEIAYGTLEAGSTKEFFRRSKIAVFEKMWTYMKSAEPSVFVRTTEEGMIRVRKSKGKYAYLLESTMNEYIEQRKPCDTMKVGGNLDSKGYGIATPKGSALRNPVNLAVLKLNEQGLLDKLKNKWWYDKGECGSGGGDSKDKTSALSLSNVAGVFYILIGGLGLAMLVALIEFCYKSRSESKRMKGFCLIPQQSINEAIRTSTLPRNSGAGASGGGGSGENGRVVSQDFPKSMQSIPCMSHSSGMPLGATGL
T1 sequence (P19490 19-907 L497Y): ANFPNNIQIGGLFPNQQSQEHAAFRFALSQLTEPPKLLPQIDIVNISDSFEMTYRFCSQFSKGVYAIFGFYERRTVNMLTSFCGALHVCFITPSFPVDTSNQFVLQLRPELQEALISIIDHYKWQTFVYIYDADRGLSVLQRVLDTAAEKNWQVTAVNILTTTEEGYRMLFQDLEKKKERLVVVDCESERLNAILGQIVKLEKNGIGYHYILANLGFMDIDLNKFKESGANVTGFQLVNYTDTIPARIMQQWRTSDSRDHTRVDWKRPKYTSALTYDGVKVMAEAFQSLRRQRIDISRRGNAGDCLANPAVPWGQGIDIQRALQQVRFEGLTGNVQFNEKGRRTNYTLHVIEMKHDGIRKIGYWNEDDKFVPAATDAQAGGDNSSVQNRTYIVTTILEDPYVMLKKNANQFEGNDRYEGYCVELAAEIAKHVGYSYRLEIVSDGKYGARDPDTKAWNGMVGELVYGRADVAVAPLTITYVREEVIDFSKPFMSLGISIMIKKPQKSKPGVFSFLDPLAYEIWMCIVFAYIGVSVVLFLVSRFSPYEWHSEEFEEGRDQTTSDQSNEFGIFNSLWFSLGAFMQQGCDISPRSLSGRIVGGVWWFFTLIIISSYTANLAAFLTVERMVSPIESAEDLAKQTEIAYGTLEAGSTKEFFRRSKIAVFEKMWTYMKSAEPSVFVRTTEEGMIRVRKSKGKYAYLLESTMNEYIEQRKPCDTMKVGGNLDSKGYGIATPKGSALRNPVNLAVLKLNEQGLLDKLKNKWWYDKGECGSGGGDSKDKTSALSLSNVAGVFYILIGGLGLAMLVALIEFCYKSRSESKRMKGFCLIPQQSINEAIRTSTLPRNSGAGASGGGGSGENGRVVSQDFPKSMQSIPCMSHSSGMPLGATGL
Chain of GluATCV*^ΔNTD (P19490 with tags, fused parts or gaps L497Y): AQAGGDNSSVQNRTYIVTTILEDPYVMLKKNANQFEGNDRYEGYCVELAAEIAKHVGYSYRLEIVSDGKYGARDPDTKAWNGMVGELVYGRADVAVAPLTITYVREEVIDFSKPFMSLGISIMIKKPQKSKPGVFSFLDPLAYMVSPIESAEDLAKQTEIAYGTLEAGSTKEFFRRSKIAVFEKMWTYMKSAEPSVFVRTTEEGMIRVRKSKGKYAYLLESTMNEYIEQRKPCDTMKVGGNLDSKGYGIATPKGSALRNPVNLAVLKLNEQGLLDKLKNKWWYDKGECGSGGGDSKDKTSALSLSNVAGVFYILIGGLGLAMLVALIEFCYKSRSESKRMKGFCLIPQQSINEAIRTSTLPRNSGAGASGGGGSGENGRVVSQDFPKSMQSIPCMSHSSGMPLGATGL
Chain of GluATCV*^ΔNTD (A7K9J5 1-82 partner): as the sequence (A7K9J5 entry or part of it G77S/F78L) above

SMILES: [Ba+2] [Ba^2+]
- Block of glutamate-induced and leakage currents by Ba^2+ [1]: could be efficiently blocked
- Maximal Ba^2+-sensitive currents [1]: 0.8 ± 0.2 µA
- Ba^2+-block of the leakage current ([1]; −70 mV, n = 5): 32.9 ± 10.8*** %
- Maximal Ba^2+-sensitive currents [2]: 1.0 ± 0.3 µA
- Block of initial leakage and Glu-evoked currents by Ba^2+ ([2]; 500 µM Ba^2+): could be blocked
- Ba^2+-block of the leakage current ([2]; −70 mV, n = 5): 84.4 ± 2.3%
- Ba^2+-block of the leakage current ([3]; −70 mV, absence of agonist, 500 µM Ba^2+, n = 5): 93.5 ± 1.6%

SMILES: N[C@@H](CCC(=O)O)C(=O)O [glutamate, L-glutamate]
- Imax (GluATCV*^ΔNTD): 1.0 ± 0.26 µA
- Glutamate-induced fraction of the Ba^2+-block (IGlu/IBa) ([1]; n = 5): 68.2 ± 5.2** %
- Glutamate-induced fraction of the Ba^2+-block (IGlu/IBa) ([1]; n = 5, listed as Glu): 68.2 ± 5.2%
- Glu-inducible current amplitude (IGlu) ([1]; n = 5): 0.7 ± 0.2 µA
- Glutamate-induced fraction of the Ba^2+-block (IGlu/IBa) ([2]; fraction of total Ba^2+-sensitive current, n = 5): 36.4 ± 4.6%
- Glu-elicited current amplitude ([2]; −70 mV, n = 10): 0.4 ± 0.3 µA
- Currents in response to glutamate ([3]; 1 mM glutamate): could not elicit any currents
- Response to Glu application [4]: remained insensitive

SMILES: N#Cc1cc2nc(O)c(O)nc2cc1[N+](=O)[O-] [CNQX, 6-cyano-7-nitroquinoxaline-2,3-dione]
- IC50 [5]: 2.2 µM and 2 µM

From publication PMC6385376, “Coupling of a viral K^+-channel with a glutamate-binding-domain highlights the modular design of ionotropic glutamate-receptors” (Communications Biology, 2019)
